This data set is described as follows: Solubility (descriptive). It counts as physicochemical. Particulars: 0.9% NaCl release medium. An excerpt: The samples at each sampling point are filtered through a 0.45 μm microporous film and injected for analysis.

The text below walks through data of patent US20190083398A1 (ZheJiang Chinese Medical University, priority 2016, published 2019).

SMILES strings stand for the structures.

For the compound `CC(C)[C@@H](C)/C=C/[C@@H](C)[C@H]1CC[C@H]2C3=CC=C4C[C@@H](O)CC[C@]4(C)[C@H]3CC[C@]12C` [ergosterol], the “solubility in the release medium” value is listed as “very low”.
